# Reference: patent US12370202B2, “Methods and compositions for inhibiting the NLRP3 inflammasome and/or LON protease” (TRITERPENOID THERAPEUTICS, INC., priority 2019, dated 2025)
# Columns and labels:
# [1] = tested on: A2780; assay: Ovarian cancer cell growth (confluence), IncuCyte ZOOM; format: cell-based, human
# From the text: (§1) FIG. 11 is a set of line graphs. Cisplatin resistant human ovarian cancer cell lines A2780, CP70, OV81, CP10, OVCAR-5 and OVCAR-8 were exposed to CDDO-2P-Im, cisplatin, or a combination of CDDO-2P-Im and cisplatin.
# (§2) CDDO-2P-Im suppresses growth of cisplatin-resistant human ovarian cancer cells in vitro. Cisplatin resistant human ovarian cancer cell lines A2780, CP70, OV81, CP10, OVCAR-5 and OVCAR-8 cell were each cultured in a complete medium consisting of RPMI1640, 20% heat-inactivated FBS, 1% penicillin/streptomycin. Cells were cultured in a water jacketed CO2 incubator at 37° C. in a humidified atmosphere consisting of 5% CO2 and 95% air. Continuous live-cell analysis (CLCA) was used as a non-invasive cell monitoring and measurement method based on time-lapse, phase-contrast microscopy and fluorescence imaging, using IncuCyte® ZOOM. Cells were seeded in 96-well plates at densities of either 1×10^4 or 3×10^4 cell/cm^2 followed by addition of a drug dilution series for either CDDO-2P-Im or Cisplatin (P4394, Sigma) dissolved in PBS and diluted in media. […] Reduction in confluence is accompanied by the detachment and death of ovarian cancer cells.
# [2] = tested on: OVCAR-5; assay: as above; format: cell-based, human
# From the text: as §1, §2
# [3] = tested on: CP10; assay: as above; format: cell-based, human
# From the text: as §1, §2
# [4] = tested on: OVCAR-8; assay: as above; format: cell-based, human
# From the text: as §1, §2
# [5] = tested on: OV81; assay: as above; format: cell-based, human
# From the text: as §1, §2
# [6] = tested on: CP70; assay: as above; format: cell-based, human
# From the text: as §1, §2
# [7] = tested on: NLRP3 inflammasome; assay: NLRP3 inflammasome activation in LPS-primed BMDM, IL-1β ELISA; format: cell-based, mouse
# Method: FIG. 4A depicts an experimental design and FIG. 4B is a bar graph. Ixazomib (IXZ) potentiation of NLRP3 inflammasome activation inhibited by CDDO-2P-Im. Bone marrow derived macrophages (BMDM) were treated with Ixazomib (IXZ) and LPS (100 ng/ml) for 20 hours. Primed-BMDM were treated with CDDO-2P-Im (100 nM) for 15 min, followed by stimulation of ATP (5 mM) for 45 min. Supernatant were analyzed by ELISA for IL-1β release.
# FIG. 6 is a set of bar graphs. CDDO-Im, CDDO-2P-Im (right panel), and CDDO-3P-Im (left panel) inhibit IL-1β production by NLRP3 inflammasome activation. LPS primed-BMDM were treated with different doses of CDDO-Im, CDDO-2P-Im, or CDDO-3P-Im for 15 min before ATP (5 mM) was added for 45 min. Supernatant were analyzed by ELISA for IL-1β.
# To explore the potential that CDDO-2P-IM may enhance the MM response to proteasome inhibitors via inhibition of inflammasome activity, the effect of CDDO-2P-IM on activation of the NLRP3 complex (as defined by IL-1β production), in the presence or absence of IXZ in primary mouse bone marrow derived macrophages (BMDM) was evaluated. In the experiment, BMDM were primed by lipopolysaccharide (LPS) in the presence or absence of IXZ for 4 hours, followed by a brief ([…]) exposure to CDDO-2P-IM after which inflammasome activation was triggered by ATP.
# The effects of the pyridyl derivatives of CDDO-IM, (specifically, CDDO-2P-Im and CDDO-3P-Im) on NLRP3 inflammasome activation were tested in mouse BMDMs. Cells were first primed with LPS for 4 hours, then pretreated with specific doses of either CDDO-Im, CDDO-2P-IM or CDDO-3P-Im (30-1000 nM) for 15 min before ATP was added for another 45 min. CDDO-Im and its pyridyl derivatives inhibited the amount of caspase-p10 (an auto-processed fragment of caspase-1) released into cell culture supernatants in a dose-dependent manner as measured by Western blot (FIG. 5). […] The effect on caspase-1 activation is specific for the NLRP3 inflammasome as the AIM2 inflammasome activation by poly(dA:dT) was not inhibited by the synthetic CDDO-Im derivatives (data not shown).
# [8] = Drug levels in brain after systemic dosing, HPLC/Mass Spec; format: in vivo, Mice
# Method: Mice (3 per group) were treated with single intraperitoneal (i.p.) doses of either 1 micromole (low dose) or 2 micromoles (high dose) of CDDO-2P-Im in DMSO. Brains were analyzed either 3 or 6 hours after dosing. Brains were homogenized in saline, then extracted with acetonitrile, and the extracts subjected to HPLC/Mass Spec analysis, using appropriate standard curves from spiked homogenates. Values obtained (in nanomoles/kg of brain) were: 270+/−80 (low dose, 3 hours); 300+/−90 (low dose, 6 hours); 2,600+/−2,200 (high dose, 3 hours); and 540+/−260 (high dose, 6 hours).
# A second experiment with oral or i.p. dosing of 1 micromole of CDDO-2P-Im, and analysis at 6 hours, confirmed the above results, with drug levels in brain ranging from 140 to 900 nanomoles/kg of brain in 10 different samples from cerebral cortex.
# [9] = tested on: U251; assay: GBM cell growth (confluence), IncuCyte; format: cell-based, human; conditions: not shown
# Method: To define the capacity of CDDO-2P-IM to suppress the growth and viability of GBM, several well-characterized human GBM cell lines (U251, U-87MG, LN227, Gli36Δ5), primary cultures of patient-derived GBM cells (UVM04, D028), and normal human astrocytes (provided by Dr. Arti Gaur, Dartmouth College) were utilized.
# The activity of CDDO-2P-IM in cultures of human GBM was assessed and similar nanomolar (nM) potency was observed. […] These changes in confluence observed by Incucyte® corresponded with a reduction in cell viability. Doses of CDDO-2P-IM that result in complete cell death of the LN227, U251 and U-87MG cell lines had no effect on the viability of primary human astrocytes in vitro (not shown).
# [10] = suboptimal doses combined with cisplatin, significance at 0.005 or greater
compound,measurement,setting,value
"CC1(C)CC[C@]2(C(=O)n3cnc(-c4ccccn4)c3)CC[C@]3(C)[C@H](C(=O)C=C4[C@@]5(C)C=C(C#N)C(=O)C(C)(C)[C@@H]5CC[C@]43C)[C@@H]2C1 [CDDO-2P-Im, 1-[2-Cyano-3,12-dioxooleana-1,9(11)-dien-28-oyl]-4(-pyridin-2-yl)-1H-imidazole]",growth (confluence),[1]; nanomolar concentrations,suppressed growth in a dose-dependent manner
same,"ovarian cancer cell kill, combination with cisplatin",[1]; [10],significant gain
same,sensitivity (growth),[2],highly sensitive
same,"ovarian cancer cell kill, combination with cisplatin",[2]; [10],significant gain
same,sensitivity (growth),[3],highly sensitive
same,"ovarian cancer cell kill, combination with cisplatin",[3]; [10],significant gain
same,sensitivity (growth),[4],highly sensitive
same,"ovarian cancer cell kill, combination with cisplatin",[4]; [10],significant gain
same,sensitivity (growth),[5],highly sensitive
same,"ovarian cancer cell kill, combination with cisplatin",[5]; [10],significant gain
same,growth (confluence),[6]; nanomolar concentrations,suppressed growth in a dose-dependent manner
same,"ovarian cancer cell kill, combination with cisplatin",[6]; [10],significant gain
same,"IL-1β release, IXZ potentiation of NLRP3 inflammasome activation","[7]; BMDM primed with IXZ and LPS, CDDO-2P-Im 100 nM 15 min before ATP (5 mM) 45 min",inhibited
same,NLRP3 inflammasome activation (IL-1β production),"[7]; BMDM primed with LPS in absence of IXZ, ATP trigger",direct suppression
same,IL-1β production by NLRP3 inflammasome activation,"[7]; LPS primed BMDM, different doses (30-1000 nM) 15 min before ATP (5 mM) 45 min, ELISA",inhibit
same,level in brain,"[8]; single i.p. 1 micromole (low dose) in DMSO, 3 hours",270+/−80 nanomoles/kg of brain
same,level in brain,"[8]; single i.p. 1 micromole (low dose) in DMSO, 6 hours",300+/−90 nanomoles/kg of brain
same,level in brain,"[8]; single i.p. 2 micromoles (high dose) in DMSO, 3 hours","2,600+/−2,200 nanomoles/kg of brain"
same,level in brain,"[8]; single i.p. 2 micromoles (high dose) in DMSO, 6 hours",540+/−260 nanomoles/kg of brain
same,confluence (growth),[9],dose-dependent reduction
